Laboratory results reported in patent publication US20260265689A1, “BIOHYBRID ROBOT INCLUDING RETINAL/BRAIN ORGANOID, MOTOR NERVE SPHEROID, AND MUSCLE BUNDLE, AND MANUFACTURING METHOD THEREFOR” (SOGANG UNIVERSITY RESEARCH & BUSINESS DEVELOPMENT FOUNDATION, priority 2023, published 2026).

Legend:
[1] = system: brain organoids; assay: Electrophysiological signal measurement of retinal/brain organoid conjugates using a multi-electrode array; assay type: cell-based, human; settings: 100 μM glutamate mixed into the co-culture medium
Protocol: The formation of conjugates of brain organoids and retinal organoids in Examples 1-3 above was confirmed through signal measurement using a multi-electrode array. Retinal/brain organoids were placed on electrodes of the multi-electrode array for signal measurement, and then the generation of electrophysiological signals was measured while light was applied to the retinal organoids. In addition, glutamate was added as a neurotransmitter to the co-culture medium used in the multi-electrode array, and electrophysiological signals generated from brain organoids were measured.

[2] = system: brain organoid of the versatile biohybrid robot; assay: Movement of the versatile biohybrid robot in co-culture media; design: species or system human; settings: brain organoid stimulated using glutamate; 0.27 cm/min before stimulation

N[C@@H](CCC(=O)O)C(=O)O [glutamate]
electrophysiological signals generated by stimulating brain organoids [1]: transmitted to the brain organoids | movement of the biohybrid robot after stimulation [2]: 0.52 cm/min
